Assays:
[1] = Moisture sorption of GS-7977 Form 6; type: physicochemical
Text: (§1) In one aspect, the disclosed composition comprises polymorphic Form 6 of GS-7977.

[2] = Chemical stability of GS-7977 Form 6 on open storage; type: physicochemical; conditions: opened conditions at 40° C./75% RH for 30 days
Text: as §1

[3] = tested on: 1a-H77 sub-genomic replicon, NS5B S282T; assay: microbe, parasite or virus in culture; type: cell-based, hepatitis C virus; conditions: Hepatitis C virus, read-out: EC50 S282T
Method: (§2) (Lam et al., J. Virology (2011) 85(23): 12334-12342; Lam et al., Antimicrob. Agents Chemother. (2012) 56(6): 3359-3368.) S282T mutations in NS5B were created by site-directed mutagenesis in 1a-H77, 1b con-1, and 2a JFH1 sub-genomic replicons. 1b con-1-based chimeric replicons containing 2b, 3a, 4a, 5a, or 6a NS5B were also engineered to harbor the S282T mutation. […] Relative percentages of mutant and WT were assessed by deep sequencing.

[4] = tested on: 1a-H77 sub-genomic replicon, wild-type NS5B; assay: Transient replicon assay; type: cell-based; conditions: Hepatitis C virus, read-out: EC50 WT
Method: as §2

[5] = tested on: 1b con-1-based chimeric replicon containing 5a NS5B, wild-type; assay: Transient replicon assay; type: cell-based; conditions: Hepatitis C virus, read-out: EC50 WT
Method: as §2

[6] = tested on: 1b con-1-based chimeric replicon containing 6a NS5B, wild-type; assay: Transient replicon assay; type: cell-based; conditions: Hepatitis C virus, read-out: EC50 WT
Method: as §2

[7] = tested on: mixture of 50% S282T and 50% WT in GT2a replicons; assay: Long-term passaging study with deep sequencing; type: cell-based, hepatitis C virus; conditions: after fifteen days
Text: as §2, with “In vitro studies have shown that S282T is the primary mutation selected by GS-7977 in HCV genotype 1a, 1b and 2a replicon cells. (Lam” for “(Lam”
(See also Han et al., 63rd Annual Meeting of the American Association for the Study of Liver Diseases, Poster 1078, Nov. 11, 2012.)

Hepatitis C virus = conditions: ribavirin alone, patients with CHC; cited from earlier work

| SMILES | hygroscopicity [1] | moisture sorption ([1]; room temperature and 90% RH) | chemical stability [2] | EC50 [3] [nM] | EC50 [4] [nM] | EC50 [5] [nM] | EC50 [6] [nM] | population WT [7] [%] | effect on HCV RNA levels (Hepatitis C virus) |
| --- | --- | --- | --- | --- | --- | --- | --- | --- | --- |
| CC(C)OC(=O)[C@H](C)N[P@](=O)(OC[C@H]1O[C@@H](n2ccc(=O)[nH]c2=O)[C@](C)(F)[C@@H]1O)Oc1ccccc1 [Form 6] | not hygroscopic | less than 0.2% | chemically stable |  |  |  |  |  |  |
| NC(=O)c1ncn([C@@H]2O[C@H](CO)[C@@H](O)[C@H]2O)n1 [Ribavirin, 1-β-D-ribofuranosyl-1H-1,2,4-triazole-3-carboxamide, reference compound] |  |  |  | 5 | 21 | 1.9 | 5.3 | 96 | did not reduce HCV RNA levels during or after therapy |
